Measurements from patent US20230073834A1, “SUBNORMOTHERMIC MACHINE PERFUSION OF ORGANS WITH CARBON MONOXIDE AND OXYGEN” (priority 2021, published 2023).

Assays:
porcine DCD kidneys = assay: Ex vivo pulsatile perfusion of porcine DCD kidneys with CORM-401 in UW solution, then blood reperfusion; design: species or system large male Landrace pig
Procedure: (§1) Methods: To stimulate donation after circulatory death condition, kidneys from large male Landrace pig were retrieved after 1-hour warm ischemia in situ by cross-clamping the renal pedicle. […] Kidneys were then reperfused with normothermic isogeneic porcine blood through oxygenated pulsatile perfusion for 10 hours. Urine was collected, vascular flow was assessed during reperfusion and histopathology was assessed after 10 hours of reperfusion. Sections were stained with H&E (not shown), TUNEL (FIG. 4A) and MSB (FIG. 4B) to quantify ATN (FIG. 4C), Apoptosis (brown spot), Hemorrhage (yellow stain), and neutrophil gelatinase-associated lipocalin (NGAL) to quantify kidney injury (FIG. 4D).

Toll-like receptor 4 = assay: Toll-like receptor suppression in CORM-401 perfused porcine DCD kidneys; design: species or system large male Landrace pig; details: 200 μM CORM-401 perfused kidneys
Procedure: as §1

Toll-like receptor 2 = assay: as above; design: species or system large male Landrace pig; details: 200 μM CORM-401 perfused kidneys
Procedure: as §1

Toll-like receptor 6 = assay: as above; design: species or system large male Landrace pig; details: 200 μM CORM-401 perfused kidneys
Procedure: as §1

Pig kidneys = assay: Ex vivo subnormothermic (22° C.) pulsatile perfusion of pig kidneys with HBOC-201 versus blood or static cold storage
Procedure: Methods: Pig kidneys (n=5) were procured after 30 minutes of warm in situ ischemia by cross-clamping the renal arteries. Organs were flushed with histidine tryptophan ketoglutarate solution and subjected to static cold storage or pulsatile perfusion with an RM3 pump at 22° C. for 4 hours with HBOC-201 and blood. Thereafter, kidneys were reperfused with normothermic (37° C.) oxygenated blood for 4 hours. Blood and urine were subjected to biochemical analysis. Total urine output, urinary protein, albumin/creatinine ratio, flow rate, resistance were measured. Acute tubular necrosis, apoptosis, urinary kidney damage markers, neutrophil gelatinase-associated lipocalin 1, and interleukin 6 were also assessed.

[1] = 200 μM, 4 h perfusion at 4° C. in UW solution, 10 h blood reperfusion, vs inactive CORM-401
[2] = 22° C. 4 hours perfusion, 4 hours reperfusion, as with blood
[3] = 22° C. 4 hours perfusion, 4 hours reperfusion, versus cold storage

Row | Toll-like receptor 4 suppression (anti-inflammatory action) (Toll-like receptor 4) | Toll-like receptor 2 suppression (anti-inflammatory action) (Toll-like receptor 2) | Toll-like receptor 6 suppression (anti-inflammatory action) (Toll-like receptor 6) | Compound | intrarenal hemorrhage and vascular dotting during reperfusion (porcine DCD kidneys; 200 μM, 4 h perfusion at 4° C. in UW solution, 10 h blood reperfusion) | ATN (acute tubular necrosis) in histopathologic sections (porcine DCD kidneys; [1]) | dUTP nick end labeling staining in histopathologic sections (porcine DCD kidneys; [1]) | kidney damage markers (kidney damage marker-1 and neutrophil gelatinase-associated lipocalin) (porcine DCD kidneys; [1]) | urinary protein excretion (porcine DCD kidneys; 200 μM, 4 h perfusion at 4° C. in University of Wisconsin solution, 10 h normothermic blood reperfusion, vs inactive CORM-401) | injury in porcine DCD kidneys (porcine DCD kidneys; 1 h warm ischemia, perfusion with UW solution, 10 h blood reperfusion at 37° C.) | renal blood flow and function upon reperfusion (Pig kidneys; 22° C. 4 hours perfusion, 4 hours reperfusion with 37° C. oxygenated blood, compared with blood-treated kidneys) | IL6 levels (Pig kidneys; [2]) | Urinary damage markers (Pig kidneys; [2]) | TUNEL staining (apoptosis) (Pig kidneys; [3]) | acute tubular necrosis scores (Pig kidneys; [3]) | TUNEL staining (apoptosis) (Pig kidneys; 22° C. 4 hours perfusion, 4 hours reperfusion, versus cold storage, listed as HBOC) | tissues oxygen saturation (Pig kidneys; 22° C., 4 hours perfusion, compared with blood)
1 | suppressing | suppressing | suppressing | CN(CC(=O)O)C(=S)[S-].[C-]#[O+].[C-]#[O+].[C-]#[O+].[C-]#[O+].[Mn] [CORM-401] | prevented | reduced | reduced | attenuated | reduced | reduced injury | – | – | – | – | – | – | –
2 | – | – | – | HBOC-201: acellular hemoglobin-based oxygen carrier; blood free oxygen carrier (Hemopure) | – | – | – | – | – | – | similar | similarly reduced | similarly reduced | vastly reduced | vastly reduced | reduces apoptosis | equivalent to blood
